# Residues, ends and D or L forms follow the SMILES beside them.
# Columns and labels:
# E. faecalis ATCC 29212 = type: cell-based, Enterococcus faecalis
# Source text: (§1) Gram-negative bacterial strains, Escherichia coli ATCC 8739, Escherichia coli ATCC 35218, Escherichia coli ML 35p, Escherichia coli K12, Pseudomonas aeruginosa ATCC 27853, and Gram-positive bacterial strains, Enterococcus faecalis ATCC29212, Kocuria rhizophila ATCC 9341, Staphylococcus aureus ATCC 6538, Staphylococcus aureus ATCC 29213, Staphylococcus aureus ST 1065, Staphylococcus epidermidis BM 3302, and Bacillus subtilis subsp. subtilis CIP 52.65, as well as two multiresistant strains (Staphylococcus aureus DAR 5829 (http://www.ncbi.nlm.nih.gov/bioproject/228435) and Enterococcus faecium BM 4147 [20] were cultured as described previously. The minimal inhibitory concentration (MIC) of the peptides was determined by the microtiter broth dilution method. Overnight precultures were subcultured in Luria Bertani (LB) medium at 37°C with vigorous shaking until mid-log phase (~2h) and diluted to 10^7 cfu/mL. Peptide solutions were prepared at different concentrations (from 2 to 500 μM) by successive 2-fold dilutions in water from 1 mM stock solutions. In each row of a 96-well nonbinding surface plate, 90 μL of bacteria were incubated with 10 μL of peptide solutions for 18 h at 37°C. The final peptide concentrations ranged from 0.2 to 100 μM. Cell growth was evaluated by visual inspection and absorbance at 600 nm to determine the lowest concentration of peptide that prevented cell growth. Wells were either opaque, indicating stationary phase growth, or transparent indicating no growth. The lowest concentration showing no visible growth was considered as the MIC. After measurement of the MIC, the bactericidal activity was determined by the addition of resazurin dye (30 μL, 0.01% w/v) to each well [22]. The plates were further incubated at 37°C for 18 h. Wells in which the dye turned pink indicated live bacteria, whereas wells in which the dye remained blue indicated dead bacteria. The minimal bactericidal concentration (MBC) is the lowest concentration with blue coloration (99.9% of bacteria were killed). Three to five independent assays were performed in triplicate. Positive controls correspond to medium plus 0.2% formaldehyde and negative controls to medium without peptide.
# [1] = system: Ps. aeruginosa ATCC 27853; type: cell-based, Pseudomonas aeruginosa; settings: LB, 10^7 cfu/mL, 18 h at 37°C, peptide 0.2-100 μM, averaged over >=3 independent experiments in triplicate
# Source text: as §1, with “Wells were either opaque, indicating stationary phase growth, or transparent indicating no growth. The lowest concentration showing no visible growth was considered as the MIC. After measurement of the MIC, the bactericidal activity was determined by the addition of resazurin dye (30 μL, 0.01% w/v) to each well [22]. The plates were further incubated at 37°C for 18 h. Wells in which the dye turned pink indicated live bacteria, whereas wells in which the dye remained blue indicated dead bacteria. The minimal bactericidal concentration (MBC) is the lowest concentration with blue coloration (99.9% of bacteria were killed). Three to five independent assays were performed in triplicate. Positive controls correspond to medium plus 0.2% formaldehyde and negative controls to medium without peptide.” left out
# S. aureus ST1065 = experiment: Bacterial membrane permeabilization (ONPG hydrolysis); type: cell-based, Staphylococcus aureus; settings: S. aureus ST 1065, 2.5 mM ONPG, absorbance at 420 nm; two independent experiments in triplicate
# Experimental: Membrane permeabilization was assessed by monitoring the hydrolysis of ortho-nitrophenyl β-D-galactopyranoside (ONPG) by the β-galactosidase enzyme, using the S. aureus ST1065 strain, specifically designed for membrane permeabilization assays, through detection of cytoplasmic β-galactosidase activity leakage. Bacteria were grown in LB to an absorbance of 0.5 at 600 nm, pelleted by centrifugation, and the pellets were washed twice with PBS. Pellets were then resuspended in 10% LB in PBS to an absorbance of 0.5 at 600 nm. Aliquots (15 μL) of bacterial suspension were mixed with 2.5 mM ONPG and incubated with various concentrations of peptide in a 96-well plate. The hydrolysis of ONPG was monitored by measuring the absorbance at 420 nm of released o-nitrophenol with a Fluostar Galaxy microplate reader (BMG LabTech, France).
# E. coli ATCC 35218 = type: cell-based, Escherichia coli; settings: LB, 10^7 cfu/mL, 18 h at 37°C, peptide 0.2-100 μM, averaged over >=3 independent experiments in triplicate
# Source text: as §1
# E. coli K12 = type: cell-based, Escherichia coli; settings: LB, 10^7 cfu/mL, 18 h at 37°C, peptide 0.2-100 μM, averaged over >=3 independent experiments in triplicate
# Source text: as §1
# E. coli ML 35p = type: cell-based, Escherichia coli; settings: LB, 10^7 cfu/mL, 18 h at 37°C, peptide 0.2-100 μM, averaged over >=3 independent experiments in triplicate
# Source text: as §1
# E. coli ATCC 8739 = type: cell-based, Escherichia coli
# Source text: as §1
# [2] = Circular dichroism, helical content with lipid vesicles; type: physicochemical; settings: CD, 10 mM phosphate buffer pH 7.4, 20 μM peptide, peptide/lipid molar ratio 1/50
# Source text: Lipid vesicles were formed using bacterial lipids extracted as described above or commercially available synthetic lipids. The lipids, 1-palmitoyl-2-oleoyl-sn-glycero-3-phosphocholine (POPC), 1-palmitoyl-2-oleoyl-sn-glycero-3-phospho-(1'-rac-glycerol) (POPG), 1,2-dimyristoyl-sn-glycero-3-phosphoglycerol (DMPG), 1.2-dioleyl-sn-glycero-3-phosphoglycerol (DOPG), and 1',3'-bis[1,2-dioleoyl-sn-glycero-3-phospho]-sn-glycerol (CL), were obtained from Avanti Polar Lipids, Inc (Alabaster, AL) and used without further purification. Desired mixtures of phospholipids were first dried in glass tubes under nitrogen and then maintained under a reduced pressure for at least 60 min. Lipid films were subsequently hydrated in PBS to yield a lipid concentration of 10 mg.mL^-1 for tryptophan fluorescence experiments, 1 mg.mL^-1 for DSC experiments, and in PB at 1 mM for CD experiments. The resulting dispersions of large multilamellar vesicles (MLVs) were subjected to 3 to 5 freeze-thaw cycles and then extruded 15 times through polycarbonate membranes (100 nm pore size, Whatman, Maidstone, UK) on an Avanti mini-extruder apparatus (Avanti Polar Lipids, Inc., Alabaster, AL) to generate large unilamellar vesicles (LUVs). Lipid vesicles were used either alone, or in combination with S. aureus peptidoglycan (PGN) (Sigma).
# The CD spectra of the peptides were recorded as previously described. […]
# S. epidermidis BM3302 = type: cell-based, Staphylococcus epidermidis
# Source text: as §1
# K. rhizophila ATCC 9341 = type: cell-based, Kocuria rhizophila
# Source text: as §1
# A549 cells = experiment: Cytotoxicity, trypan blue exclusion; type: cell-based; settings: A549 human lung carcinoma cells, 2-hour incubation at 37°C, 5% CO2, concentrations as high as 100 μM; 3 independent experiments in triplicate
# Experimental: A549 cells (ATCC CCL-185), a human lung carcinoma cell line, were cultivated at 37°C, humid atmosphere and 5% CO2, in Petri dishes with DMEM Advanced medium (Gibco) supplemented with 5% of fetal bovine serum (FBS), 2 mM of glutamine, 100 U of penicillin and 50 μg/mL of streptomycin (Gibco). When the cells reached 80% confluence, the medium was discarded and the cells were washed with PBS 1×, before being treated with Trypsin 1× for 2 minutes to detach them form the culture dish. Cells were then resuspended in DMEM medium, seeded in a 48-well culture plate (500 000 cells/well), and either form of DMS-DA6 solubilized in PBS 1× was added and incubated for 2 hours at 37°C, 5% CO2. DMSO 30% was used as a positive control to induce cell death, and DMEM medium as negative control. After incubation, cell viability was assessed by trypan blue exclusion.
# B. subtilis CIP 52.65 = type: cell-based, Bacillus subtilis subsp. subtilis
# Source text: as §1
# S. aureus ATCC 29213 = type: cell-based, Staphylococcus aureus
# Source text: as §1
# S. aureus ST 1065 = type: cell-based, Staphylococcus aureus
# Source text: as §1
# S. aureus ATCC 6538 = type: cell-based, Staphylococcus aureus
# Source text: as §1
# S. aureus DAR 5829 = type: cell-based, Staphylococcus aureus; settings: S. aureus DAR 5829, multi-resistant strain
# Source text: as §1
# E. faecium BM 4147 = type: cell-based, Enterococcus faecium; settings: E. faecium BM 4147, multi-resistant strain
# Source text: as §1
# [3] = LB, 10^7 cfu/mL, 18 h at 37°C, averaged over >=3 independent experiments in triplicate
# [4] = resazurin dye added after MIC, further 18 h at 37°C, 99.9% killed, averaged over >=3 experiments in triplicate
smiles,measurement,setting,value
CC[C@H](C)[C@H](NC(=O)CNC(=O)[C@H](Cc1c[nH]c2ccccc12)NC(=O)[C@@H](NC(=O)CN)C(C)C)C(=O)N[C@@H](C)C(=O)N[C@@H](CCCCN)C(=O)N[C@H](C(=O)N[C@@H](C)C(=O)NCC(=O)N[C@@H](CCCCN)C(=O)N[C@H](C(=O)N[C@@H](CC(C)C)C(=O)NCC(=O)N[C@@H](CC(N)=O)C(=O)N[C@H](C(=O)N[C@@H](CC(C)C)C(=O)N1CCC[C@H]1C(=O)N[C@@H](Cc1c[nH]cn1)C(=O)N[C@H](C(=O)N[C@@H](Cc1ccccc1)C(=O)N[C@@H](CO)C(=O)N[C@@H](CO)C(=O)N[C@@H](CC(N)=O)C(=O)N[C@@H](CCC(N)=O)C(=O)N[C@@H](CO)C(N)=O)C(C)C)[C@@H](C)CC)C(C)C)[C@@H](C)CC [DMS-DA6-NH2] (H-GVWGIAKIAGKVLGNILPHVFSSNQS-NH2),MIC,E. faecalis ATCC 29212; [3],50 µM
same,MBC,E. faecalis ATCC 29212; [4],50 µM
same,MIC,[1],>100 µM
same,intact peptide remaining,,> 90%
same,peptide concentration at which the maximal absorption intensity (ONPG hydrolysis) after 240 minutes was reached,S. aureus ST1065,12.5 µM
same,MIC,E. coli ATCC 35218,>100 µM
same,MIC,E. coli K12,>100 µM
same,MIC,E. coli ML 35p,>100 µM
same,MIC,E. coli ATCC 8739; [3],25 µM
same,MBC,E. coli ATCC 8739; [4],50 µM
same,α-helix conformation,[2]; POPG LUVs,about 80%
same,α-helix conformation,[2]; pure zwitterionic POPC LUVs,40%
same,MIC,S. epidermidis BM3302; [3],12.5 µM
same,MBC,S. epidermidis BM3302; [4],12.5 µM
same,MIC,K. rhizophila ATCC 9341; [3],3.12 µM
same,MBC,K. rhizophila ATCC 9341; [4],3.12 µM
same,death of A549 cells (trypan blue exclusion),A549 cells,neither DMS-DA6-OH (net charge +2) nor DMS-DA6-NH2 (net charge +3) resulted in the death
same,MIC,B. subtilis CIP 52.65; [3],6.25 µM
same,MBC,B. subtilis CIP 52.65; [4],6.25 µM
same,MIC,S. aureus ATCC 29213; [3],3.12 µM
same,MBC,S. aureus ATCC 29213; [4],6.25 µM
same,MIC,S. aureus ST 1065; [3],12.5 µM
same,MBC,S. aureus ST 1065; [4],12.5 µM
same,MIC,S. aureus ATCC 6538; [3],6.25 µM
same,MBC,S. aureus ATCC 6538; [4],6.25 µM
same,MIC,S. aureus DAR 5829; [3],25 µM
same,MBC,S. aureus DAR 5829; [4],50 µM
same,MIC,E. faecium BM 4147; [3],25 µM
same,MBC,E. faecium BM 4147; [4],25 µM
